Consider nine molecules from PubChem BioAssay (NCI).

Some test systems named below: 786-0 renal; A549 NSCLC; BT-549 breast; HOP-92 NSCLC; LOX IMVI melanoma; MOLT-4 leukemia; OVCAR-5 ovarian; RPMI-8226 leukemia; SW-620 colon; SK-MEL-2 melanoma.
Holding throughout (experiment): inhibition of tumour cell growth, NCI panel, 48 h

Each structure is given as a SMILES string. “And” between values parts separate entries of the source, which are not always exact repeats. Equal entries are not always repeated.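 96-well plates; 48 h exposure; 5 concentrations. Endpoints by linear interpolation between flanking doses. Not reached: highest tested concentration assigned. Here, GI50 denotes the concentration required for 50% inhibition of growth. The concentration for full growth arrest is given as TGI.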

`O=c1c(-c2ccccc2)coc2cc(OC/C(=N/O)c3ccccc3)ccc12`: the GI50 is 25.4 µM with 786-0 renal; 3.62 µM with A549 NSCLC; 29.8 µM with BT-549 breast; 15.3 µM with HOP-92 NSCLC; 18.4 µM in the assay on LOX IMVI melanoma; 12.4 µM with MOLT-4 leukemia. Besides, the GI50 in the assay with OVCAR-5 ovarian is 37 µM; in the assay on RPMI-8226 leukemia, 13.8 µM; in the assay on SW-620 colon, 20.2 µM. The TGI was 50.4 µM in the assay on 786-0 renal; 25.2 µM with A549 NSCLC; more than 100 µM with BT-549 breast; 47.4 µM in the assay with HOP-92 NSCLC; 37.4 µM with LOX IMVI melanoma; more than 100 µM in the assay on MOLT-4 leukemia. The TGI in the assay with OVCAR-5 ovarian is more than 100 µM; with RPMI-8226 leukemia it was 53 µM; in the assay on SW-620 colon, 64.8 µM.

As to `COc1ccc2c(c1)C(=O)c1c-2n(CCCI)c(=O)c2cc([N+](=O)[O-])ccc12`, the GI50 with 786-0 renal is 0.106 µM and 0.0522 µM; in the assay with A549 NSCLC, 0.316 µM and 0.402 µM; in the assay on BT-549 breast, 0.112 µM and 0.786 µM; with HOP-92 NSCLC, 0.0738 µM and 0.715 µM; in the assay with LOX IMVI melanoma, 0.0743 µM and 0.0432 µM; with MOLT-4 leukemia, 0.06 µM and 0.0214 µM. In addition, the GI50 in the assay on SK-MEL-2 melanoma was 8.01 µM and 16.4 µM; in the assay on SW-620 colon, 0.0524 µM and 0.0345 µM. The TGI is 50 µM and 40.9 µM with A549 NSCLC; 0.763 µM and 1.01 µM with LOX IMVI melanoma; 0.971 µM and 0.117 µM in the assay on MOLT-4 leukemia; 7.75 µM and 46.3 µM with OVCAR-5 ovarian; 47.2 µM and > 100 µM with SK-MEL-2 melanoma; 7.91 µM and 15.6 µM in the assay on SW-620 colon.

Regarding `Cc1cc(N2CCOCC2)cc2[nH]c(-c3c(NC[C@@H](O)c4cccc(Cl)c4)cc[nH]c3=O)nc12`, the GI50 in the assay on 786-0 renal was 1.21 µM; in the assay with A549 NSCLC, 0.903 µM; in the assay with BT-549 breast it was 1.83 µM; in the assay with LOX IMVI melanoma, 0.387 µM; in the assay on MOLT-4 leukemia, 3.14 µM; with OVCAR-5 ovarian, 0.673 µM. Besides, the values for the GI50 with RPMI-8226 leukemia, with SK-MEL-2 melanoma and in the assay on SW-620 colon were 3.22 µM, 1.98 µM and 1.05 µM, respectively. Also, the TGI was determined as 4.02 µM with 786-0 renal; 4.31 µM in the assay with A549 NSCLC; 7.18 µM with BT-549 breast; 2.19 µM in the assay with LOX IMVI melanoma; 27.7 µM in the assay on MOLT-4 leukemia; 9.66 µM with OVCAR-5 ovarian. For the same molecule, the TGI is more than 100 µM with RPMI-8226 leukemia, 5.98 µM with SK-MEL-2 melanoma and 11.2 µM in the assay on SW-620 colon.

For `COC(=O)CC[C@H](Cc1ccccc1)NC(=O)c1csc([C@@H](C[C@H](C(C)C)N(C)C(=O)[C@@H](NC(=O)[C@H]2CCCCN2C)C(C)C)OC(C)=O)n1`, the GI50 in the assay on 786-0 renal is less than 0.0025 µM; in the assay with A549 NSCLC, 0.00744 µM; in the assay with BT-549 breast, 0.00275 µM; in the assay on HOP-92 NSCLC, 4.93 µM; in the assay on LOX IMVI melanoma, less than 0.0025 µM; in the assay with MOLT-4 leukemia, less than 0.0025 µM. The GI50 in the assay with OVCAR-5 ovarian was 0.00816 µM; in the assay with RPMI-8226 leukemia, less than 0.0025 µM; in the assay on SW-620 colon it was less than 0.0025 µM. Besides, the TGI was more than 25 µM with 786-0 renal; more than 25 µM in the assay with A549 NSCLC; 0.137 µM with BT-549 breast; more than 25 µM with HOP-92 NSCLC; more than 25 µM with LOX IMVI melanoma; 10.5 µM with MOLT-4 leukemia. Further, the TGI with OVCAR-5 ovarian, in the assay with RPMI-8226 leukemia and in the assay with SW-620 colon was more than 25 µM in each case.

In the case of `COC(=O)/C=C/c1cc2c(cc1-c1c(C(=O)O)cc(OC)c(OC)c1OC)OCO2`, the TGI in the assay on 786-0 renal, in the assay with A549 NSCLC, in the assay with BT-549 breast, in the assay on HOP-92 NSCLC, with LOX IMVI melanoma and in the assay on MOLT-4 leukemia was more than 10 µM each time. Besides, the TGI in the assay with RPMI-8226 leukemia and in the assay on SW-620 colon was more than 10 µM in each case.

For the molecule `O=C1C[C@@H]2/C(=C(O)\C=C\c3ccccc3)C(=O)C=C[C@@H]2O1`, the GI50 in the assay on 786-0 renal was 1.74 µM; with A549 NSCLC, 3.51 µM; in the assay with BT-549 breast it was 2.84 µM; with HOP-92 NSCLC, 1.59 µM; with LOX IMVI melanoma it was 0.214 µM; in the assay with MOLT-4 leukemia, 1.85 µM. Also, the GI50 with OVCAR-5 ovarian is 1.93 µM; in the assay on SK-MEL-2 melanoma, 1.77 µM; in the assay with SW-620 colon it was 0.485 µM. Moreover, the TGI was 3.49 µM in the assay with 786-0 renal; 12.8 µM with A549 NSCLC; 8.45 µM with BT-549 breast; 3.21 µM in the assay on HOP-92 NSCLC; 0.485 µM in the assay on LOX IMVI melanoma; 5.77 µM with MOLT-4 leukemia. Further, the TGI stood at 3.84 µM in the assay on OVCAR-5 ovarian, 3.56 µM with SK-MEL-2 melanoma and 4.94 µM with SW-620 colon.

On to `O=C1c2ccccc2S(=O)(=O)c2cc(-c3nn[nH]n3)ccc21`, for which the TGI in the assay on 786-0 renal, in the assay on A549 NSCLC, with BT-549 breast, in the assay with HOP-92 NSCLC, in the assay on LOX IMVI melanoma and with MOLT-4 leukemia was more than 100 µM each time. Besides, the TGI in the assay on OVCAR-5 ovarian, with SK-MEL-2 melanoma and in the assay on SW-620 colon was more than 100 µM each time.

On to `OCC#Cc1ccccc1C#CCCCCCC#Cc1ccccc1C#CCO`, for which the GI50 with 786-0 renal was 16.8 µM; with A549 NSCLC, 19.2 µM; with BT-549 breast it was 19.8 µM; in the assay on HOP-92 NSCLC, 17.6 µM; in the assay with LOX IMVI melanoma, 19.3 µM; in the assay with MOLT-4 leukemia it was 15.6 µM. The GI50 with OVCAR-5 ovarian is 12.8 µM; with SW-620 colon, 21.9 µM. Besides, the TGI in the assay on 786-0 renal was determined as 32.3 µM; in the assay on A549 NSCLC, 45.3 µM; with BT-549 breast, 39.8 µM; in the assay on HOP-92 NSCLC, 33.3 µM; in the assay with LOX IMVI melanoma, 34.8 µM; in the assay on MOLT-4 leukemia, 37.3 µM. Also, the TGI is 28.6 µM with OVCAR-5 ovarian and 43.3 µM with SW-620 colon.

On to `COc1ccc(-c2ccc(-c3ccc(C(=N)N)o3)o2)cc1`, for which the GI50 in the assay on 786-0 renal was 2.22 µM; in the assay with A549 NSCLC, 1.49 µM; in the assay with BT-549 breast, 4.55 µM; in the assay on LOX IMVI melanoma, 1.46 µM; in the assay with MOLT-4 leukemia, 1.2 µM; with OVCAR-5 ovarian, 2.42 µM. Besides, the values for the GI50 in the assay on RPMI-8226 leukemia, in the assay with SK-MEL-2 melanoma and with SW-620 colon were 2.68 µM, 5.71 µM and 0.532 µM, respectively. In addition, the TGI in the assay on 786-0 renal worked out at 5.64 µM; with A549 NSCLC, 4.79 µM; with BT-549 breast, 16.9 µM; with LOX IMVI melanoma, 2.96 µM; in the assay on MOLT-4 leukemia, 4.3 µM; with OVCAR-5 ovarian, 5.88 µM. Moreover, the values for the TGI in the assay on RPMI-8226 leukemia, with SK-MEL-2 melanoma and with SW-620 colon were 7.85 µM, 21.7 µM and 2.43 µM, respectively.
